Assay results as given in the NIST ThermoML archive (doi:10.1016/j.jct.2006.03.013).
Numbers after ± are expanded uncertainties.

conditions: 182.33 K; Liquid; Closed cell (Static) method

Point of comparison: CCCC [butane], “vapor or sublimation pressure” value 0.419 ± 0.011 kPa. Against it:
- CCC [propane] — higher, 6.02 ± 0.044 kPa
- CC [ethane] — higher, 88.97 ± 0.39 kPa
